Measured values from patent US20260248811A1, “COMPOSITIONS FOR TREATING AN INDIVIDUAL FOR IMPROVEMENT OF COGNITIVE FUNCTIONS” (priority 2023, published 2026).

Experiments:
[1] = sublingually with cyclodextrins (women about 0.1-2 mg; men about 0.5-20 mg); cited from earlier work
[2] = Total and free testosterone in blood plasma 15 minutes after sublingual intake of the androgen(s); format: in vivo, human; details: measured not calculated, 5 mg T or 5 mg T + 5 mg DHT
Experimental: Testosterone (T) vs. testosterone and dihydrotestosterone (T+DHT) The first example concerns two male heterosexual patients. Two alternative forms of testosterone administration were considered for a treatment. The first treatment involved taking 5 mg sublingual testosterone (T) (solution consisting of alcohol, denaturalized water, testosterone and cyclodextrins). The second consisted of simultaneously taking 5 mg sublingual testosterone and 5 mg sublingual dihydrotestosterone (DHT) (solution consisting of alcohol, denaturalized water, DHT and cyclodextrins). The testosterone and DHT solutions were prepared by a pharmacist on the request of a general practitioner. Subsequently, the changes in total testosterone and free testosterone in blood plasma were examined, 15 minutes after intake of the androgen(s).
The table below describes the effects of the different treatments on ‘total testosterone’ and ‘free testosterone (i.e. measured, not calculated)’ for both patients:
This is consistent with the assumption that SHBG becomes more saturated as a result of the binding of DHT to SHBG. This means that the ingested testosterone can no longer bind to SHBG, and consequently there will be a greater increase in unbound testosterone (i.e. free testosterone). […] Total testosterone and free testosterone were measured 15 minutes after the administration of T and (T&DHT). dysfunction/disorder

[3] = intranasal administration; cited from earlier work

C[C@]12CC[C@H]3[C@@H](CCC4=CC(=O)CC[C@@]43C)[C@@H]1CC[C@@H]2O [T, 17-β-hydroxyandrost-4-en-3-one]
Time to pharmacological peak in testosterone and free testosterone [1]: about 15 minutes
Free T ([2]; Patient 1, blood plasma): 440 pml/L
Free T ([2]; Patient 2, blood plasma): 1030 pml/L

CC[C@H](C)[C@@H]1NC(=O)[C@H](Cc2ccc(O)cc2)NC(=O)[C@@H](N)CSSC[C@@H](C(=O)N2CCC[C@H]2C(=O)N[C@@H](CC(C)C)C(=O)NCC(N)=O)NC(=O)[C@H](CC(N)=O)NC(=O)[C@H](CCC(N)=O)NC1=O [oxytocin]
Return of oxytocin levels to baseline [3]: approximately 90 minutes
T-max of oxytocin levels in the blood circulation [3]: approximately 15 minutes
